CC1(C)COP(=O)(Oc2cc(OP3(=O)OCC(C)(C)CO3)cc(OP3(=O)OCC(C)(C)CO3)c2)OC1
solubility (mole fraction) (in 1,4-dioxane, 288.15 K): 8.73e-05 | solubility (mole fraction) (in 1,4-dioxane, 293.15 K): 9.57e-05 | solubility (mole fraction) (in 1,4-dioxane, 298.15 K): 0.00011 | solubility (mole fraction) (in 1,4-dioxane, 303.15 K): 0.000127 | solubility (mole fraction) (in 1,4-dioxane, 308.15 K): 0.000139 | solubility (mole fraction) (in 1,4-dioxane, 313.15 K): 0.000153 | solubility (mole fraction) (in 1,4-dioxane, 318.15 K): 0.000171 | solubility (mole fraction) (in THF, 288.15 K): 0.000132 | solubility (mole fraction) (in THF, 293.15 K): 0.000138 | solubility (mole fraction) (in THF, 298.15 K): 0.000144 | solubility (mole fraction) (in THF, 303.15 K): 0.000149 | solubility (mole fraction) (in THF, 308.15 K): 0.000154 | solubility (mole fraction) (in THF, 313.15 K): 0.000158 | solubility (mole fraction) (in THF, 318.15 K): 0.000162 | solubility (mole fraction) (in acetone, 288.15 K): 0.000453 | solubility (mole fraction) (in acetone, 293.15 K): 0.000502 | solubility (mole fraction) (in acetone, 298.15 K): 0.000568 | solubility (mole fraction) (in acetone, 303.15 K): 0.000638 | solubility (mole fraction) (in acetone, 308.15 K): 0.000718 | solubility (mole fraction) (in acetone, 313.15 K): 0.000805 | solubility (mole fraction) (in acetone, 318.15 K): 0.000924 | solubility (mole fraction) (in acetonitrile, 288.15 K): 0.000941 | solubility (mole fraction) (in acetonitrile, 293.15 K): 0.00109 | solubility (mole fraction) (in acetonitrile, 298.15 K): 0.00136 | solubility (mole fraction) (in acetonitrile, 303.15 K): 0.00158 | solubility (mole fraction) (in acetonitrile, 308.15 K): 0.00195 | solubility (mole fraction) (in acetonitrile, 313.15 K): 0.00238 | solubility (mole fraction) (in acetonitrile, 318.15 K): 0.00289 | solubility (mole fraction) (in chloroform, 288.15 K): 0.00551 | solubility (mole fraction) (in chloroform, 293.15 K): 0.00634 | solubility (mole fraction) (in chloroform, 298.15 K): 0.00713 | solubility (mole fraction) (in chloroform, 303.15 K): 0.00802 | solubility (mole fraction) (in chloroform, 308.15 K): 0.00921 | solubility (mole fraction) (in chloroform, 313.15 K): 0.0106 | solubility (mole fraction) (in chloroform, 318.15 K): 0.0121 | solubility (mole fraction) (in dichloromethane, 288.15 K): 0.00512 | solubility (mole fraction) (in dichloromethane, 293.15 K): 0.00589 | solubility (mole fraction) (in dichloromethane, 298.15 K): 0.00673 | solubility (mole fraction) (in dichloromethane, 303.15 K): 0.00779 | solubility (mole fraction) (in dichloromethane, 308.15 K): 0.00891 | solubility (mole fraction) (in ethanol, 288.15 K): 7.83e-05 | solubility (mole fraction) (in ethanol, 293.15 K): 9.43e-05 | solubility (mole fraction) (in ethanol, 298.15 K): 0.000111 | solubility (mole fraction) (in ethanol, 303.15 K): 0.00013 | solubility (mole fraction) (in ethanol, 308.15 K): 0.000156 | solubility (mole fraction) (in ethanol, 313.15 K): 0.000192 | solubility (mole fraction) (in ethanol, 318.15 K): 0.000225 | solubility (mole fraction) (in methanol, 288.15 K): 0.000423 | solubility (mole fraction) (in methanol, 293.15 K): 0.000496 | solubility (mole fraction) (in methanol, 298.15 K): 0.000568 | solubility (mole fraction) (in methanol, 303.15 K): 0.000648 | solubility (mole fraction) (in methanol, 308.15 K): 0.000748 | solubility (mole fraction) (in methanol, 313.15 K): 0.000874 | solubility (mole fraction) (in methanol, 318.15 K): 0.000975

From BigSolDB 2.1
